From article PMC6934184, “Selective DNA-PKcs inhibition extends the therapeutic index of localized radiotherapy and chemotherapy” (The Journal of Clinical Investigation, 2019)

Target: T1, RPS6KB1 (p70S6K) (Homo sapiens, UniProt P23443)
T1 construct: purchased Thermo Fisher Scientific (Life Technologies) SelectScreen
Assay: SelectScreen Z'LYTE
Format: biochemical
Procedure, shortened: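 SelectScreen broad panel; activity (Z'LYTE, Adapta) plus binding formats. ATP: Km app for CSF1R Z'LYTE; 10 for CAMK1 Adapta. Readout = % per kinase.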

T1 sequence (P23443 whole entry): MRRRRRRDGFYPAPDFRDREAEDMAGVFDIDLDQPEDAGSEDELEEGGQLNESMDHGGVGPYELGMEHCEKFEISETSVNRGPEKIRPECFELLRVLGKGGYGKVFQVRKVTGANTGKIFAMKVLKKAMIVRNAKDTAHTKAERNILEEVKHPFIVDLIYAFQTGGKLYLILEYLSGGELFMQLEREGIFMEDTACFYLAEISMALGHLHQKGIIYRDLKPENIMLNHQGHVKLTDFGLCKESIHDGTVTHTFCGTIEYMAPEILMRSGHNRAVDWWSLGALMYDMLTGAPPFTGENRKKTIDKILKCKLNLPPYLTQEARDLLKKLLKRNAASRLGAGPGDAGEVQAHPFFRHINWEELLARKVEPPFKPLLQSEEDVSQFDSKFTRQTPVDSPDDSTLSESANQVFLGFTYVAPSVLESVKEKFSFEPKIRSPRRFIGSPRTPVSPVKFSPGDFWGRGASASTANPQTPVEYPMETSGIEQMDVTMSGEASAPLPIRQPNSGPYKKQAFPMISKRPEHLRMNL

For CN(C(=O)CN1CCOCC1)c1ccc2sc3c(-c4cccc5c(=O)cc(N6CC7CCC(C6)O7)oc45)cccc3c2c1 [NU5455], the inhibition at 1 µM was -7.8%.
